Data reported in PubChem BioAssay AID200 (DTP/NCI, 2004).
Values joined by “and” are separate entries in the source; they are usually repeats but may differ in a detail not shown here. Identical values can stand only once. Inconclusive results and toxic doses are left out.

Tested on: B6C3F1 mice, B16 melanoma ip, median survival T/C
Assay: NCI In Vivo Anticancer Drug Screen. Data for tumor model B16 Melanoma (intraperitoneal) in B6C3F1 mice
Settings: endpoint: median survival time, higher = longer survival
Summary of the method: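 Values are T/C ratios: the measurement in treated animals divided by that in vehicle-treated controls, using survival or tumor size in mice carrying transplantable tumors.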

SMILES: COC(=O)NC1C(C)OC(OC2C/C=C(/C)C3C=CC4C(OC5CC(OC6CCC(OC7CC(O)C(OC8CCC(O)C(C)O8)C(C)O7)C(C)O6)C(OC(C)=O)C(C)O5)C(C)CC(C)C4C3(C)/C(O)=C3/C(=O)OC4(CC(C=O)=CC(O)C4/C=C\2C)C3=O)CC1(C)[N+](=O)[O-] (stereo not given)
- T/C (dose: 1.25 mg/kg/injection, schedule: Q01DX009 (ip), vehicle: water): 114 % of control
- T/C (dose: 1.69 mg/kg/injection, schedule: Q03HX024 (ip), vehicle: water): 165 % of control
- T/C (dose: 2.4 mg/kg/injection, schedule: Q01DX005 (ip), vehicle: water): 124 % of control
- T/C (dose: 2.43 mg/kg/injection, schedule: Q01DX005 (iv), vehicle: water): 110 % of control
- T/C (dose: 2.5 mg/kg/injection, schedule: Q01DX009 (sc), vehicle: water): 98 % of control
- T/C (dose: 2.53 mg/kg/injection, schedule: Q03HX024 (ip), vehicle: water): 186 % of control
- T/C (dose: 3.0 mg/kg/injection, schedule: Q01DX005 (iv), vehicle: water): 99 % of control
- T/C (dose: 3.4 mg/kg/injection, schedule: Q03HX008 (ip), vehicle: water): 161 % of control
- T/C (dose: 3.6 mg/kg/injection, schedule: Q01DX005 (ip), vehicle: water): 160 % of control
- T/C (dose: 3.63 mg/kg/injection, schedule: Q01DX005 (iv), vehicle: water): 114 % of control
- T/C (dose: 3.77 mg/kg/injection, schedule: Q03HX024 (ip), vehicle: water): 173 % of control
- T/C (dose: 4.5 mg/kg/injection, schedule: Q01DX005 (iv), vehicle: water): 105 % of control
- T/C (dose: 4.5 mg/kg/injection, schedule: Q01DX009 (ip), vehicle: water): 161 % of control
- T/C (dose: 5.0 mg/kg/injection, schedule: Q01DX009 (sc), vehicle: water): 97 % of control
- T/C (dose: 5.08 mg/kg/injection, schedule: Q03HX008 (ip), vehicle: water): 171 % of control
- T/C (dose: 5.3 mg/kg/injection, schedule: Q01DX005 (ip), vehicle: water): 177 % of control
- T/C (dose: 5.4 mg/kg/injection, schedule: Q01DX005 (ip), vehicle: water): 165 % of control
- T/C (dose: 5.41 mg/kg/injection, schedule: Q01DX005 (iv), vehicle: water): 108 % of control
- T/C (dose: 5.63 mg/kg/injection, schedule: Q03HX024 (ip), vehicle: water): 203 % of control
- T/C (dose: 6.0 mg/kg/injection, schedule: Q01DX009 (sc), vehicle: water): 101 % of control
- T/C (dose: 6.7 mg/kg/injection, schedule: Q01DX005 (iv), vehicle: water): 105 % of control
- T/C (dose: 6.7 mg/kg/injection, schedule: Q01DX009 (ip), vehicle: water): 165 % of control
- T/C (dose: 6.74 mg/kg/injection, schedule: Q01DX009 (oral), vehicle: water): 98 % of control
- T/C (dose: 8.0 mg/kg/injection, schedule: Q01DX005 (ip), vehicle: water): 153 % of control and 159 % of control
- T/C (dose: 8.0 mg/kg/injection, schedule: Q01DX005 (iv), vehicle: water): 108 % of control and 120 % of control
- T/C (dose: 8.08 mg/kg/injection, schedule: Q01DX005 (iv), vehicle: water): 98 % of control
- T/C (dose: 8.1 mg/kg/injection, schedule: Q01DX005 (ip), vehicle: water): 175 % of control
- T/C (dose: 9.0 mg/kg/injection, schedule: Q01DX009 (sc), vehicle: water): 109 % of control
- T/C (dose: 9.1 mg/kg/injection, schedule: Q04DX003 (ip), vehicle: water): 177 % of control
- T/C (dose: 10.0 mg/kg/injection, schedule: Q01DX005 (iv), vehicle: water): 103 % of control
- T/C (dose: 10.0 mg/kg/injection, schedule: Q01DX009 (sc), vehicle: water): 100 % of control
- T/C (dose: 10.05 mg/kg/injection, schedule: Q01DX009 (oral), vehicle: water): 102 % of control
- T/C (dose: 12.0 mg/kg/injection, schedule: Q01DX005 (ip), vehicle: water): 171 % of control and 197 % of control
- T/C (dose: 12.0 mg/kg/injection, schedule: Q01DX005 (iv), vehicle: water): 108 % of control and 105 % of control
- T/C (dose: 12.06 mg/kg/injection, schedule: Q01DX001 (iv), vehicle: water): 116 % of control
- T/C (dose: 12.1 mg/kg/injection, schedule: Q01DX005 (iv), vehicle: water): 110 % of control
- T/C (dose: 13.0 mg/kg/injection, schedule: Q01DX005 (ip), vehicle: water): 162 % of control
- T/C (dose: 13.0 mg/kg/injection, schedule: Q01DX009 (sc), vehicle: water): 101 % of control
- T/C (dose: 13.5 mg/kg/injection, schedule: Q04DX003 (ip), vehicle: water): 165 % of control
- T/C (dose: 15.0 mg/kg/injection, schedule: Q01DX005 (iv), vehicle: water): 110 % of control
- T/C (dose: 15.0 mg/kg/injection, schedule: Q01DX009 (ip), vehicle: water): 180 % of control
- T/C (dose: 15.0 mg/kg/injection, schedule: Q01DX009 (oral), vehicle: water): 103 % of control
- T/C (dose: 18.0 mg/kg/injection, schedule: Q01DX001 (ip), vehicle: water): 191 % of control
- T/C (dose: 18.0 mg/kg/injection, schedule: Q01DX005 (ip), vehicle: water): 112 % of control
- T/C (dose: 18.0 mg/kg/injection, schedule: Q01DX005 (iv), vehicle: water): 110 % of control and 97 % of control and 104 % of control
- T/C (dose: 18.1 mg/kg/injection, schedule: Q01DX005 (ip), vehicle: water): 159 % of control
- T/C (dose: 20.0 mg/kg/injection, schedule: Q01DX005 (ip), vehicle: water): 121 % of control
- T/C (dose: 20.0 mg/kg/injection, schedule: Q01DX009 (sc), vehicle: water): 95 % of control and 103 % of control
- T/C (dose: 20.2 mg/kg/injection, schedule: Q04DX003 (ip), vehicle: water): 178 % of control
- T/C (dose: 22.39 mg/kg/injection, schedule: Q01DX009 (oral), vehicle: water): 96 % of control
- T/C (dose: 27.0 mg/kg/injection, schedule: Q01DX001 (ip), vehicle: water): 203 % of control
- T/C (dose: 27.0 mg/kg/injection, schedule: Q01DX001 (iv), vehicle: water): 108 % of control
- T/C (dose: 27.0 mg/kg/injection, schedule: Q01DX005 (iv), vehicle: water): 112 % of control and 106 % of control
- T/C (dose: 30.0 mg/kg/injection, schedule: Q01DX009 (sc), vehicle: water): 97 % of control
- T/C (dose: 33.41 mg/kg/injection, schedule: Q01DX009 (oral), vehicle: water): 101 % of control
- T/C (dose: 40.5 mg/kg/injection, schedule: Q01DX001 (ip), vehicle: water): 226 % of control
- T/C (dose: 40.5 mg/kg/injection, schedule: Q01DX001 (iv), vehicle: water): 121 % of control
- T/C (dose: 49.87 mg/kg/injection, schedule: Q01DX009 (oral), vehicle: water): 100 % of control

SMILES: O=C(O)CC(NC(=O)CP(=O)(O)O)C(=O)O.[NH-]C1CCCCC1[NH-].[Pt+2] (stereo not given)
- T/C (dose: 0.78 mg/kg/injection, schedule: Q01DX009 (ip), vehicle: dextrose): 157 % of control
- T/C (dose: 3.12 mg/kg/injection, schedule: Q01DX009 (ip), vehicle: dextrose): 175 % of control

SMILES: O=NN(CCCl)C(=O)NC1CCCCC1
- T/C (dose: 3.12 mg/kg/injection, schedule: Q01DX001 (ip), vehicle: carboxymethylcellulose (CMC)): 103 % of control
- T/C (dose: 3.12 mg/kg/injection, schedule: Q01DX005 (ip), vehicle: carboxymethylcellulose (CMC)): 103 % of control
- T/C (dose: 6.25 mg/kg/injection, schedule: Q01DX001 (ip), vehicle: carboxymethylcellulose (CMC)): 99 % of control
- T/C (dose: 6.25 mg/kg/injection, schedule: Q01DX005 (ip), vehicle: carboxymethylcellulose (CMC)): 112 % of control
- T/C (dose: 12.5 mg/kg/injection, schedule: Q01DX001 (ip), vehicle: carboxymethylcellulose (CMC)): 98 % of control
- T/C (dose: 12.5 mg/kg/injection, schedule: Q01DX005 (ip), vehicle: carboxymethylcellulose (CMC)): 114 % of control
- T/C (dose: 32.0 mg/kg/injection, schedule: Q01DX009 (ip), vehicle: Klucel (hydroxypropylcellulose) (HPC)): 86 % of control
- T/C (dose: 50.0 mg/kg/injection, schedule: Q01DX001 (ip), vehicle: carboxymethylcellulose (CMC)): 177 % of control
- T/C (dose: 50.0 mg/kg/injection, schedule: Q01DX005 (ip), vehicle: carboxymethylcellulose (CMC)): 172 % of control
- T/C (dose: 100.0 mg/kg/injection, schedule: Q01DX001 (ip), vehicle: carboxymethylcellulose (CMC)): 204 % of control
- T/C (dose: 100.0 mg/kg/injection, schedule: Q01DX005 (ip), vehicle: carboxymethylcellulose (CMC)): 107 % of control

SMILES: N=C(N)SCc1c2ccccc2c(CSC(=N)N)c2ccccc12
- T/C (dose: 6.25 mg/kg/injection, schedule: Q01DX009 (ip), vehicle: saline): 156 % of control
- T/C (dose: 12.5 mg/kg/injection, schedule: Q01DX009 (ip), vehicle: saline): 181 % of control
- T/C (dose: 25.0 mg/kg/injection, schedule: Q01DX009 (ip), vehicle: saline): 228 % of control
- T/C (dose: 50.0 mg/kg/injection, schedule: Q01DX009 (ip), vehicle: saline): 320 % of control
